Results from patent publication US10112899B2 (ViiV HEALTHCARE UK LIMITED, priority 2014, dated 2018).

System: HIV in the HTLV-1 transformed cell line MT-4
Assay: organism not typed
Format: cell-based
Conditions: MT4, 96 h, MT-4 cells; luciferase/cell titer glo readout after 96 hours; 10 point dose response

SMILES	IC50
Cc1c(-c2c(C)c3c(c(C)c2[C@H](OC(C)(C)C)C(=O)O)CN(C(=O)c2ccc(F)c(F)c2)C3)cc(F)c2c1CCCO2 (atropisomer, axis not shown; (M)) [Example 186, (S)-2-(tert-butoxy)-2-((M)-2-(3,4-difluorobenzoyl)-6-(8-fluoro-5-methylchroman-6-yl)-4,7-dimethylisoindolin-5-yl)acetic acid]	2 nM
COc1ccc(C(=O)N2Cc3c(C)c(-c4cc(F)c5c(c4C)CCCO5)c([C@H](OC(C)(C)C)C(=O)O)c(C)c3C2)cc1F (atropisomer, axis not shown; (M)) [Example 187, (S)-2-(tert-butoxy)-2-((M)-2-(3-fluoro-4-methoxybenzoyl)-6-(8-fluoro-5-methylchroman-6-yl)-4,7-dimethylisoindolin-5-yl)acetic acid]	3 nM
Cc1c(-c2c(C)c3c(c(C)c2[C@H](OC(C)(C)C)C(=O)O)CN(C(=O)c2cc(Cl)c(F)c(Cl)c2)C3)cc(F)c2c1CCCO2 (atropisomer, axis not shown; (M)) [Example 188, (S)-2-(tert-butoxy)-2-((M)-2-(3,5-dichloro-4-fluorobenzoyl)-6-(8-fluoro-5-methylchroman-6-yl)-4,7-dimethylisoindolin-5-yl)acetic acid]	4 nM
Cc1ccc(C(=O)N2Cc3c(C)c(-c4cc(F)c5c(c4C)CCCO5)c([C@H](OC(C)(C)C)C(=O)O)c(C)c3C2)c(C)c1 (atropisomer, axis not shown; (M)) [Example 189, (S)-2-(tert-butoxy)-2-((M)-2-(2,4-dimethylbenzoyl)-6-(8-fluoro-5-methylchroman-6-yl)-4,7-dimethylisoindolin-5-yl)acetic acid]	4 nM
Cc1ccc(C(=O)N2Cc3c(C)c(-c4cc(F)c5c(c4C)CCCO5)c([C@H](OC(C)(C)C)C(=O)O)c(C)c3C2)cc1 (atropisomer, axis not shown; (M)) [Example 190, (S)-2-(tert-butoxy)-2-((M)-6-(8-fluoro-5-methylchroman-6-yl)-4,7-dimethyl-2-(4-methylbenzoyl)isoindolin-5-yl)acetic acid]	5 nM
Cc1cc(C)cc(C(=O)N2Cc3c(C)c(-c4cc(F)c5c(c4C)CCCO5)c([C@H](OC(C)(C)C)C(=O)O)c(C)c3C2)c1 (atropisomer, axis not shown; (M)) [Example 191, (S)-2-(tert-butoxy)-2-((M)-2-(3,5-dimethylbenzoyl)-6-(8-fluoro-5-methylchroman-6-yl)-4,7-dimethylisoindolin-5-yl)acetic acid]	2 nM
COc1ccc(C(=O)N2Cc3c(C)c(-c4cc(F)c5c(c4C)CCCO5)c([C@H](OC(C)(C)C)C(=O)O)c(C)c3C2)cc1C (atropisomer, axis not shown; (M)) [Example 192, (S)-2-(tert-butoxy)-2-((M)-6-(8-fluoro-5-methylchroman-6-yl)-2-(4-methoxy-3-methylbenzoyl)-4,7-dimethylisoindolin-5-yl)acetic acid]	5 nM
Cc1cccc(C(=O)N2Cc3c(C)c(-c4cc(F)c5c(c4C)CCCO5)c([C@H](OC(C)(C)C)C(=O)O)c(C)c3C2)c1C (atropisomer, axis not shown; (M)) [Example 193, (S)-2-(tert-butoxy)-2-((M)-2-(2,3-dimethylbenzoyl)-6-(8-fluoro-5-methylchroman-6-yl)-4,7-dimethylisoindolin-5-yl)acetic acid]	5 nM
Cc1c(-c2c(C)c3c(c(C)c2[C@H](OC(C)(C)C)C(=O)O)CN(C(=O)c2cc(F)c(F)c(Cl)c2)C3)cc(F)c2c1CCCO2 (atropisomer, axis not shown; (M)) [Example 194, (S)-2-(tert-butoxy)-2-((M)-2-(3-chloro-4,5-difluorobenzoyl)-6-(8-fluoro-5-methylchroman-6-yl)-4,7-dimethylisoindolin-5-yl)acetic acid]	11 nM
COc1c(F)cccc1C(=O)N1Cc2c(C)c(-c3cc(F)c4c(c3C)CCCO4)c([C@H](OC(C)(C)C)C(=O)O)c(C)c2C1 (atropisomer, axis not shown; (M)) [Example 195, (S)-2-(tert-butoxy)-2-((M)-2-(3-fluoro-2-methoxybenzoyl)-6-(8-fluoro-5-methylchroman-6-yl)-4,7-dimethylisoindolin-5-yl)acetic acid]	3 nM
COc1ccc(C(=O)N2Cc3c(C)c(-c4cc(F)c5c(c4C)CCCO5)c([C@H](OC(C)(C)C)C(=O)O)c(C)c3C2)cc1 (atropisomer, axis not shown; (M)) [Example 196, (S)-2-(tert-butoxy)-2-((M)-6-(8-fluoro-5-methylchroman-6-yl)-2-(4-methoxybenzoyl)-4,7-dimethylisoindolin-5-yl)acetic acid]	2 nM
Cc1cccc(F)c1C(=O)N1Cc2c(C)c(-c3cc(F)c4c(c3C)CCCO4)c([C@H](OC(C)(C)C)C(=O)O)c(C)c2C1 (atropisomer, axis not shown; (M)) [Example 197, (S)-2-(tert-butoxy)-2-((M)-6-(8-fluoro-5-methylchroman-6-yl)-2-(2-fluoro-6-methylbenzoyl)-4,7-dimethylisoindolin-5-yl)acetic acid]	4 nM
Cc1c(-c2c(C)c3c(c(C)c2[C@H](OC(C)(C)C)C(=O)O)CN(C(=O)c2ccc(Cl)cc2)C3)cc(F)c2c1CCCO2 (atropisomer, axis not shown; (M)) [Example 198, (S)-2-(tert-butoxy)-2-((M)-2-(4-chlorobenzoyl)-6-(8-fluoro-5-methylchroman-6-yl)-4,7-dimethylisoindolin-5-yl)acetic acid]	5 nM
COc1ccccc1C(=O)N1Cc2c(C)c(-c3cc(F)c4c(c3C)CCCO4)c([C@H](OC(C)(C)C)C(=O)O)c(C)c2C1 (atropisomer, axis not shown; (M)) [Example 199, (S)-2-(tert-butoxy)-2-((M)-6-(8-fluoro-5-methylchroman-6-yl)-2-(2-methoxybenzoyl)-4,7-dimethylisoindolin-5-yl)acetic acid]	4 nM
COc1cc(C)ccc1C(=O)N1Cc2c(C)c(-c3cc(F)c4c(c3C)CCCO4)c([C@H](OC(C)(C)C)C(=O)O)c(C)c2C1 (atropisomer, axis not shown; (M)) [Example 200, (S)-2-(tert-butoxy)-2-((M)-6-(8-fluoro-5-methylchroman-6-yl)-2-(2-methoxy-4-methylbenzoyl)-4,7-dimethylisoindolin-5-yl)acetic acid]	11 nM
Cc1c(-c2c(C)c3c(c(C)c2[C@H](OC(C)(C)C)C(=O)O)CN(c2nnc(-c4cccc(F)c4)o2)C3)cc(F)c2c1CCCO2 (atropisomer, axis not shown; (M)) [Example 201, (S)-2-(tert-butoxy)-2-((M)-6-(8-fluoro-5-methylchroman-6-yl)-2-(5-(3-fluorophenyl)-1,3,4-oxadiazol-2-yl)-4,7-dimethylisoindolin-5-yl)acetic acid]	387 nM
Cc1c(-c2c(C)c3c(c(C)c2[C@H](OC(C)(C)C)C(=O)O)CN(c2nc4ccccc4o2)C3)cc(F)c2c1CCCO2 (atropisomer, axis not shown; (M)) [Example 202, (S)-2-((M)-2-(benzo[d]oxazol-2-yl)-6-(8-fluoro-5-methylchroman-6-yl)-4,7-dimethylisoindolin-5-yl)-2-(tert-butoxy)acetic acid]	124 nM
Cc1c(-c2c(C)c3c(c(C)c2[C@H](OC(C)(C)C)C(=O)O)CN(c2nnc(Cc4ccc(F)c(F)c4)o2)C3)cc(F)c2c1CCCO2 (atropisomer, axis not shown; (M)) [Example 203, (S)-2-(tert-butoxy)-2-((M)-2-(5-(3,4-difluorobenzyl)-1,3,4-oxadiazol-2-yl)-6-(8-fluoro-5-methylchroman-6-yl)-4,7-dimethylisoindolin-5-yl)acetic acid]	63 nM
Cc1c(-c2c(C)c3c(c(C)c2[C@H](OC(C)(C)C)C(=O)O)CN(c2nc4cc(F)ccc4o2)C3)cc(F)c2c1CCCO2 (atropisomer, axis not shown; (M)) [Example 204, (S)-2-(tert-butoxy)-2-((M)-6-(8-fluoro-5-methylchroman-6-yl)-2-(5-fluorobenzo[d]oxazol-2-yl)-4,7-dimethylisoindolin-5-yl)acetic acid]	665 nM
Cc1c(-c2c(C)c3c(c(C)c2[C@H](OC(C)(C)C)C(=O)O)CN(C(=O)N2CCCC[C@H]2C)C3)cc(F)c2c1CCCO2 (atropisomer, axis not shown; (M)) [Example 205, (S)-2-(tert-butoxy)-2-((M)-6-(8-fluoro-5-methylchroman-6-yl)-4,7-dimethyl-2-((M)-2-methylpiperidine-1-carbonyl)isoindolin-5-yl)acetic acid]	4 nM
Cc1c(-c2c(C)c3c(c(C)c2[C@H](OC(C)(C)C)C(=O)O)CN(C(=O)N2CCCC(C)(C)CC2)C3)cc(F)c2c1CCCO2 (atropisomer, axis not shown; (M)) [Example 206, (S)-2-(tert-butoxy)-2-((M)-2-(4,4-dimethylazepane-1-carbonyl)-6-(8-fluoro-5-methylchroman-6-yl)-4,7-dimethylisoindolin-5-yl)acetic acid]	5 nM
Cc1c(-c2c(C)c3c(c(C)c2[C@H](OC(C)(C)C)C(=O)O)CN(C(=O)NCC(C)(C)C)C3)cc(F)c2c1CCCO2 (atropisomer, axis not shown; (M)) [Example 207, (S)-2-(tert-butoxy)-2-((M)-6-(8-fluoro-5-methylchroman-6-yl)-4,7-dimethyl-2-(neopentylcarbamoyl)isoindolin-5-yl)acetic acid]	4 nM
Cc1c(-c2c(C)c3c(c(C)c2[C@H](OC(C)(C)C)C(=O)O)CN(C(=O)N2CCCC2)C3)cc(F)c2c1CCCO2 (atropisomer, axis not shown; (M)) [Example 208, (S)-2-(tert-butoxy)-2-((M)-6-(8-fluoro-5-methylchroman-6-yl)-4,7-dimethyl-2-(pyrrolidine-1-carbonyl)isoindolin-5-yl)acetic acid]	4 nM
Cc1c(-c2c(C)c3c(c(C)c2[C@H](OC(C)(C)C)C(=O)O)CN(C(=O)N2CCOC[C@@H]2C)C3)cc(F)c2c1CCCO2 (atropisomer, axis not shown; (M)) [Example 209, (S)-2-(tert-butoxy)-2-((M)-6-(8-fluoro-5-methylchroman-6-yl)-4,7-dimethyl-2-((S)-3-methylmorpholine-4-carbonyl)isoindolin-5-yl)acetic acid]	23 nM
